Laboratory results reported in PubChem BioAssay (NCI).
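96-well plates; 48 h exposure; 5 concentrations. Endpoints by linear interpolation between flanking doses. Not reached: highest tested concentration assigned. TGI: total growth inhibition.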

Experiments:
Assay in all cases: DTP human tumour cell line panel, 48 h
[1] = system: SK-MEL-28 melanoma
[2] = system: SNB-19 CNS
[3] = system: BT-549 breast
[4] = system: TK-10 renal
[5] = system: SK-MEL-5 melanoma
[6] = system: IGROV1 ovarian
[7] = system: SN12C renal
[8] = system: UACC-62 melanoma
[9] = system: HCT-116 colon
[10] = system: MDA-N
[11] = system: OVCAR-8 ovarian
[12] = system: T-47D breast
[13] = system: UO-31 renal
[14] = system: MDA-MB-435
[15] = system: A549 NSCLC
[16] = system: PC-3 prostate
[17] = system: MALME-3M melanoma

Row | Compound | TGI [1] [µM] | TGI [2] [µM] | TGI [3] [µM] | TGI [4] [µM] | TGI [5] [µM] | TGI [6] [µM] | TGI [7] [µM] | TGI [8] [µM] | TGI [9] [µM] | TGI [10] [µM] | TGI [11] [µM] | TGI [12] [µM] | TGI [13] [µM] | TGI [14] [µM] | TGI [15] [µM] | TGI [16] [µM] | TGI [17] [µM]
1 | CN[C@@H](C)[C@H](OP(=O)(O)OC1[C@@H](O)[C@H](O)C(O)[C@H](O)[C@@H]1O)c1ccccc1 (some centres not stated) | > 100 | > 100 | > 100 | > 100 | > 100 | > 100 | > 100 | > 100 | > 100 | > 100 | > 100 | > 100 | > 100 | > 100 | > 100 | > 100 | > 100
2 | NC12CC3CC4C1CC1CC2C(C3)C4(N)C1 | > 100 | > 100 | > 100 | > 100 | > 100 | > 100 | > 100 | > 100 | > 100 | > 100 | > 100 | > 100 | > 100 | > 100 | > 100 | > 100 | > 100
3 | O=C(OCC1CCCN2CCCCC12)c1ccncc1 (configuration not stated) | > 100 | > 100 | > 100 | > 100 | > 100 | > 100 | > 100 | > 100 | > 100 | > 100 | > 100 | > 100 | > 100 | > 100 | > 100 | > 100 | > 100
4 | O=S(=O)(O)c1ccc2c(N=Nc3ccccc3Cl)c(O)ccc2c1 | > 100 | > 100 | > 100 | > 100 | > 100 | > 100 | > 100 | > 100 | > 100 | > 100 | > 100 | > 100 | > 100 | > 100 | > 100 | > 100 | > 100
5 | COc1cc(C2SCC(=O)N2c2ccc(Cl)cc2)cc(I)c1O (configuration not stated) | > 100 | > 100 | > 100 | > 100 | > 100 | > 100 | > 100 | > 28.5 | > 100 | > 100 | > 100 | > 100 | > 100 | > 100 | > 100 | > 100 | > 100
6 | Nn1c(SCC(=O)NCc2ccccc2)nc2ccccc2c1=O | > 100 | > 100 | > 100 | > 100 | > 100 | > 100 | > 100 | > 100 | 93.1 | > 100 | > 100 | > 100 | > 100 | > 100 | > 100 | > 100 | > 100
7 | COC(OC)(c1ccccc1)C(I)I | 30.7 | > 71 | 23.1 | 26.2 | 21.9 | 27.4 | 50.4 | 26.6 | 18.1 | 22.6 | 35.1 | 63.1 | 29.8 | 18 | 43.6 | 30.7 | 13.3
8 | O=C(N/N=C\c1ccc([N+](=O)[O-])cc1)c1ccccc1Nc1ccccc1C(=O)N/N=C/c1ccc([N+](=O)[O-])cc1 | > 100 | > 100 | > 100 | > 100 | > 100 | > 100 | > 100 | > 100 | > 100 | > 100 | > 100 | > 100 | > 100 | > 100 | > 100 | > 100 | > 100
9 | COc1cc(C(=O)Nc2c3ccccc3nc3ccccc23)cc(OC)c1OC | > 100 | > 100 | > 100 | > 100 | > 100 | > 100 | > 100 | > 100 | > 100 | > 100 | > 100 | > 100 | > 100 | > 100 | > 100 | > 100 | > 100
10 | COC1(OC)C2(Cl)C(Cl)=C(Cl)C1(Cl)C1COCC12 (configuration not stated) | > 55.4 | > 100 | > 100 | > 72.3 | > 100 | > 100 | > 100 | > 100 | > 100 | > 100 | > 100 | > 100 | > 100 | > 69.4 | > 100 | > 100 | > 100
11 | CN(C)CCNC(=O)c1ccc(NCCCN(C)CCCNc2ccc(C(=O)NCCN(C)C)c3[nH]c4ccc([N+](=O)[O-])cc4c(=O)c23)c2c(=O)c3cc([N+](=O)[O-])ccc3[nH]c12 | 1.06 | 0.649 | 2.64 | 1.38 | 1.14 | 0.389 | 0.668 | 0.622 | 0.644 | 0.997 | 1.3 | 2.55 | 2.01 | 0.328 | 0.64 | 0.535 | 1.37
